# Results as given in patent US11926644B2, “Syntheses, activities, and methods of use of dihydronicotinamide riboside derivatives” (Cornell University, priority 2015, dated 2024).
# What was measured:
# HEK293 cells = experiment: NAD+ measurement in HEK293 cells (NAD+ cycling assay); details: for cellular NAD concentration: 6 hours of incubation, 50-500 μM
# Protocol: Cell number were counted using hemocytometer.
# After 6 hours of incubation, cells were harvested with Trypsin. A cell count was obtained from each cell suspension by hemacytometer. The cell pellets were used for NAD^+ measurement.
# Water-only and nicotinamide riboside (NR) control treatments were run.
# HEK cells were plated in 6-well plates until 90% confluent. […] After 6 hours of incubation, cells were harvested with Trypsin. A cell count was obtained from each cell suspension by hemacytometer. The cell pellets were used for NAD^+ measurement.
# INS1 cells = experiment: Glucose-induced insulin secretion test in INS1 cells with hydrogen peroxide challenge; format: cell-based; details: 1 mM, 100 μM hydrogen peroxide, 15 mmol/l glucose
# Protocol: To induce insulin secretion, INS1 cells were seeded in 6-well plate. The cells were accommodated to low glucose RPMI-1640 media with 5 mmol/1 D-glucose overnight. Insulin secretion was assayed in HEPES balanced salt solution (HESS) (114 mmol/1 NaCl, 4.7 mmol/1 KCl, 1.2 mmol/1 KH2PO4, 1.16 mmol/1 MgSO4, 20 mmol/1 HEPES, 2.5 mmol/1 CaCl2, 25.5 mmol/1 NaHCO3, and 0.2% bovine serum albumin [essentially fatty acid free], pH 7.2). Cells wore washed in 1 ml HESS with 3 mmol/1 glucose followed by a 2 hr preincubation in 2 ml of the same buffer. Insulin secretion was then measured by incubating 1 hr 1 ml of HESS containing the 3 mmol/1 or 15 mmol/1 glucose concentration. The media was then collected for insulin analysis using RayBio™ Rat Insulin ELISA kit according to manufacturer's manual. In hydrogen peroxide challenge, 100 μM hydrogen peroxide were added to media together with 3 mmol/1 glucose containing HESS and incubated for 2 hr before switch to 15 mmol/l glucose containing HBSS for insulin secretion.
# [1] = HEK cells, 50 μM, 6 hours, percentages of average NAD^+ as compared to control
Compound,cellular NAD concentration (HEK293 cells; HEK cells),Average NAD^+ (pmoles/10^6 cells) (HEK293 cells; [1]),other results
"CCCOC(=O)C1=CN([C@@H]2O[C@H](CO)[C@H](O)[C@@H]2O)C=CC1 [Pr NaR-H, propyl-1-((2R,3S,4R,5R)-3,4-dihydroxy-5-(hydroxymethyl)tetrahydrofuran-2-yl)-1,4-dihydropyridine-3-carboxylate]",increased,,
"CCCCCCCCOC(=O)C1=CN([C@@H]2O[C@H](CO)[C@H](O)[C@@H]2O)C=CC1 [Oct NaR—H, octyl-1-((2R,3S,4R,5R)-3,4-dihydroxy-5-(hydroxymethyl)tetrahydrofuran-2-yl)-1,4-dihydropyridine-3-carboxylate]",,112%,
"CCCCCCCOC(=O)C1=CN([C@@H]2O[C@H](CO)[C@H](O)[C@@H]2O)C=CC1 [Hep NaR—H, heptyl-1-((2R,3S,4R,5R)-3,4-dihydroxy-5-(hydroxymethyl)tetrahydrofuran-2-yl)-1,4-dihydropyridine-3-carboxylate]",,124%,
"NC(=O)c1ccc[n+]([C@@H]2O[C@H](CO)[C@@H](O)[C@H]2O)c1 [NR, nicotinamide riboside]",,,"insulin secretion level under hydrogen peroxide (INS1 cells): restored the insulin secretion level back to a similar extent as untreated control; increase in NAD^+ (HEK293 cells; HEK293, 1000 mM as printed (1 mM elsewhere in the source)): 148%; Average NAD^+ (pmoles/10^6 cells) (HEK293 cells; HEK293, 1000 mM as printed in table (1 mM elsewhere in the source), compared to control): 148%"
"CCOC(=O)C1=CN([C@@H]2O[C@H](CO)[C@H](O)[C@@H]2O)C=CC1 [Et NaR-H, ethyl-1-((2R,3S,4R,5R)-3,4-dihydroxy-5-(hydroxymethyl)tetrahydrofuran-2-yl)-1,4-dihydropyridine-3-carboxylate]",increased,,
"CCCCOC(=O)C1=CN([C@@H]2O[C@H](CO)[C@H](O)[C@@H]2O)C=CC1 [Bu NaR—H, butyl-1-((2R,3S,4R,5R)-3,4-dihydroxy-5-(hydroxymethyl)tetrahydrofuran-2-yl)-1,4-dihydropyridine-3-carboxylate]",,124%,
